Where a SMILES comes first, the peptide text is derived from it.
Legend:
[1] = Comparison of stability constants in methanol and acetonitrile, bromide; format: binding; conditions: 25 °C
Method: (§1) Fluorimetric titrations were conducted on Varian Cary Eclipse Fluorimeter, UV-Vis spectra were recorded by Agilent Cary 5000 spectrophotometer, and CD spectra were recorded on JASCO J815 spectrophotometer. Fluorimeter and UV-Vis spectrophotometer were connected to thermostating device, whereas CD titrations were performed at room temperature. The excitation wavelength used in all fluorimetric titrations was 260 nm, spectra were recorded at 2 nm interval with 0.4 s integration time, 10 nm excitation, and emission slits were used. In titrations with iodide, the obtained spectra were corrected by the anion concentration dependent solvent emission spectra. […] CD spectra were recorded in the 200–300 nm wavelength range with a 0.2 nm data pitch and scanning speed of 200 nm/min; 2 scans were accumulated for each spectrum. […]
(§2) ^1H NMR titrations were carried out at 25 °C by means of a Bruker Avance III HD 400 MHz with a solvent signal used as a standard. […] Spectra were recorded at 16 pulses. ^1H NMR spectra were processed and visualized by means of MestReNova 6.1 software (Mestrelab Research, Santiago de Compostela, Spain). Stability constants of the corresponding complexes were determined from the obtained ^1H NMR spectra by using multivariate analysis implemented in HypNMR 4.0 software (Protonic Software, Leeds, UK) included in the Hyperquad program package.

[2] = Solubility determination of L (saturated solutions, spectrophotometric); format: physicochemical
Method: Saturated solutions of L in acetonitrile and methanol were prepared by adding an excess amount of the solid substance to the solvent. The obtained mixtures were left in a thermostat at 25 °C for several days in order to equilibrate. The concentrations of saturated solutions were determined at 25.0 °C spectrophotometrically by means of a Varian Cary 5000 spectrophotometer equipped with a thermostatting device. Calibration curves were obtained by measuring the absorbances of solutions of known concentrations.

[3] = Isothermal titration calorimetry (microcalorimetry) of L with chloride; format: binding; conditions: acetonitrile, 25.0 °C, measurements repeated three times
Method: Microcalorimetric measurements were conducted with an isothermal titration calorimeter Microcal VP-ITC at 25.0 °C. Thermograms were processed using the Microcal OriginPro 7.0 program (OriginLab Corporation, Northampton, MA, USA).
In the calorimetric studies of chloride complexation by L, the enthalpy changes were recorded upon stepwise additions of salt solution into the solution of cyclopeptide ligand (V0 = 1.4 cm^3). The heats measured in the titration experiments were corrected for the heats of titrant dilution obtained by blank experiments. The dependence of successive enthalpy changes on the titrant volume was processed by non-linear least-squares fitting procedure using OriginPro 7.5 program (OriginLab Corporation, Northampton, MA, USA). Measurements were repeated three times.

[4] = Comparison of stability constants in methanol and acetonitrile, chloride; format: binding; conditions: 25 °C
Method: as §1
as §2, with “package. […]” for “package.”

[5] = cited from earlier work
Excerpt: The reaction enthalpy (−15 kJ mol^−1) and entropy (65 J mol^−1 K^−1) for L-Cl complex formation are close to the corresponding values for complexation of chloride with cyclopentaleucine (∆rH = −11 kJ mol^−1, ∆rS = 76 J mol^−1 K^−1). Therefore, the inclusion of fluorescent groups to the cyclopeptide sidechain improved the anion detection capability ...

Compound	Decrease in stability constant in methanol compared to acetonitrile, in the log K value [1]	Transfer Gibbs energy of L (MeCN→MeOH) ([2]; determined from ligand solubilities in acetonitrile and methanol, 25 °C)	Solubility of free L in acetonitrile ([2]; thermodynamic, excess solid in acetonitrile, equilibrated several days at 25 °C, saturated solution measured spectrophotometrically (UV) at 25.0 °C with calibration curve)	Solubility of free L in methanol ([2]; thermodynamic, excess solid in methanol, equilibrated several days at 25 °C, saturated solution measured spectrophotometrically (UV) at 25.0 °C with calibration curve)	Reaction enthalpy for L-Cl complex formation [3] [kcal/mol]	Reaction entropy for L-Cl complex formation [3] [J mol^−1 K^−1]	Decrease in stability constant in methanol compared to acetonitrile, in the log K value [4]	∆rH for complexation of chloride with cyclopentaleucine [5] [kcal/mol]	∆rS for complexation of chloride with cyclopentaleucine [5] [J mol^−1 K^−1]
O=C1N[C@@H](Cc2ccccc2)C(=O)N[C@@H](Cc2ccccc2)C(=O)N[C@@H](Cc2ccccc2)C(=O)N[C@@H](Cc2ccccc2)C(=O)N[C@H]1Cc1ccccc1 [L, cyclopentaphenylalanine] (cyclo(FFFFF))	~3.5	negligible	(2.72 ± 0.02) × 10^−3 mol dm^−3	(2.81 ± 0.03) × 10^−3 mol dm^−3	-3.59	65	about 4.5	–	–
cyclopentaleucine	–	–	–	–	–	–	–	-2.63	76

From paper PMC9228215, “Anion-Sensing Properties of Cyclopentaphenylalanine” (Molecules, 2022)
